Laboratory results from the supplement of paper PMC10307832.

Tests used:
Assay in all cases: relative viability (nuclei count vs DMSO), 5 days (fraction); higher = more cells survive
A549 = system: A549
In short: (§1)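 Cells from lung cancer lines were seeded into 1536-well plates and, one day later, dosed by pin tool. Treatments were either a single drug or a fixed dose of an anchor drug with five library-drug doses (not always all listed) in √10 steps. After 5 days, nuclei were stained in a one-step fixation (final 0.05% Triton X-100, 1% formaldehyde, 1 ug/ml Hoechst) and counted on 4× images, and relative viability is the treated-to-vehicle nuclei ratio, as the median of duplicate plates.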

LK-2 = system: LK-2
In short: as §1

Calu-6 = system: Calu-6
In short: as §1

NCI-H1703 = system: NCI-H1703
In short: as §1

NCI-H1299 = system: NCI-H1299
In short: as §1

NCI-H1734 = system: NCI-H1734
In short: as §1

CAL-12T = system: CAL-12T
In short: as §1

A-427 = system: A-427
In short: as §1

NCI-H2009 = system: NCI-H2009
In short: as §1

UMC-11 = system: UMC-11
In short: as §1

EBC-1 = system: EBC-1
In short: as §1

IA-LM = system: IA-LM
In short: as §1

For `CC(=O)O[C@@]12CO[C@@H]1C[C@H](O)[C@@]1(C)C(=O)[C@H](O)C3=C(C)[C@@H](OC(=O)[C@H](O)[C@@H](NC(=O)OC(C)(C)C)c4ccccc4)C[C@@](O)([C@@H](OC(=O)c4ccccc4)[C@H]21)C3(C)C` [Docetaxel] + C[C@]1(O)C[C@@H](c2nc(-c3ccc4ccc(-c5ccccc5)nc4c3)c3c(N)nccn32)C1 [Linsitinib] (partner 1 µM), which relative viability (A549; first compound 0.0002 µM) is on record?
Its relative viability is 0.578.

And the relative viability (A549; first compound 0.000632 µM)?
Its relative viability is 0.372.

And the relative viability (A549; first compound 0.002 µM)?
The relative viability was 0.0857.

And the relative viability (A549; first compound 0.006325 µM)?
Its relative viability is 0.0667.

What about the relative viability (A549; first compound 0.02 µM) of the same compound?
The relative viability was 0.036.

What about the relative viability (LK-2; first compound 0.0002 µM) of the same compound?
Its relative viability is 0.534.

And the relative viability (LK-2; first compound 0.000632 µM)?
The relative viability was 0.445.

And the relative viability (LK-2; first compound 0.002 µM)?
The relative viability was 0.154.

And the relative viability (LK-2; first compound 0.006325 µM)?
Its relative viability is 0.151.

What about the relative viability (LK-2; first compound 0.02 µM) of the same compound?
Its relative viability is 0.156.

What about the relative viability (Calu-6; first compound 0.0002 µM) of the same compound?
The relative viability was 0.819.

And the relative viability (Calu-6; first compound 0.000632 µM)?
The relative viability was 0.968.

And the relative viability (Calu-6; first compound 0.002 µM)?
The relative viability was 0.332.

What about the relative viability (Calu-6; first compound 0.006325 µM) of the same compound?
The relative viability was 0.142.

What about the relative viability (Calu-6; first compound 0.02 µM) of the same compound?
The relative viability was 0.0881.

What about the relative viability (NCI-H1703; first compound 0.0002 µM) of the same compound?
Its relative viability is 0.741.

What about the relative viability (NCI-H1703; first compound 0.000632 µM) of the same compound?
The relative viability was 1.15.

And the relative viability (NCI-H1703; first compound 0.002 µM)?
Its relative viability is 0.258.

And the relative viability (NCI-H1703; first compound 0.006325 µM)?
The relative viability was 0.116.

What about the relative viability (NCI-H1703; first compound 0.02 µM) of the same compound?
The relative viability was 0.101.

What about the relative viability (NCI-H1299; first compound 0.0002 µM) of the same compound?
Its relative viability is 0.905.

What about the relative viability (NCI-H1299; first compound 0.000632 µM) of the same compound?
Its relative viability is 0.98.

What about the relative viability (NCI-H1299; first compound 0.002 µM) of the same compound?
Its relative viability is 0.787.

And the relative viability (NCI-H1299; first compound 0.006325 µM)?
Its relative viability is 0.432.

What about the relative viability (NCI-H1299; first compound 0.02 µM) of the same compound?
Its relative viability is 0.255.

And the relative viability (NCI-H1734; first compound 0.0002 µM)?
Its relative viability is 0.918.

What about the relative viability (NCI-H1734; first compound 0.000632 µM) of the same compound?
The relative viability was 0.825.

What about the relative viability (NCI-H1734; first compound 0.002 µM) of the same compound?
Its relative viability is 0.516.

What about the relative viability (NCI-H1734; first compound 0.006325 µM) of the same compound?
The relative viability was 0.373.

What about the relative viability (NCI-H1734; first compound 0.02 µM) of the same compound?
The relative viability was 0.235.

What about the relative viability (CAL-12T; first compound 0.0002 µM) of the same compound?
The relative viability was 0.725.

What about the relative viability (CAL-12T; first compound 0.000632 µM) of the same compound?
The relative viability was 0.694.

What about the relative viability (CAL-12T; first compound 0.002 µM) of the same compound?
Its relative viability is 0.303.

And the relative viability (CAL-12T; first compound 0.006325 µM)?
The relative viability was 0.184.

And the relative viability (CAL-12T; first compound 0.02 µM)?
Its relative viability is 0.14.

And the relative viability (A-427; first compound 0.0002 µM)?
The relative viability was 1.09.

And the relative viability (A-427; first compound 0.000632 µM)?
Its relative viability is 1.12.

And the relative viability (A-427; first compound 0.002 µM)?
Its relative viability is 1.02.

And the relative viability (A-427; first compound 0.02 µM)?
Its relative viability is 0.227.

What about the relative viability (NCI-H2009; first compound 0.0002 µM) of the same compound?
Its relative viability is 1.15.

What about the relative viability (NCI-H2009; first compound 0.000632 µM) of the same compound?
Its relative viability is 1.18.

What about the relative viability (NCI-H2009; first compound 0.002 µM) of the same compound?
The relative viability was 0.77.

What about the relative viability (NCI-H2009; first compound 0.006325 µM) of the same compound?
Its relative viability is 0.522.

What about the relative viability (NCI-H2009; first compound 0.02 µM) of the same compound?
The relative viability was 0.187.

What about the relative viability (UMC-11; first compound 0.0002 µM) of the same compound?
Its relative viability is 0.982.

What about the relative viability (UMC-11; first compound 0.000632 µM) of the same compound?
The relative viability was 0.905.

And the relative viability (UMC-11; first compound 0.002 µM)?
Its relative viability is 0.278.

What about the relative viability (UMC-11; first compound 0.006325 µM) of the same compound?
Its relative viability is 0.237.

And the relative viability (UMC-11; first compound 0.02 µM)?
Its relative viability is 0.183.

What about the relative viability (EBC-1; first compound 0.0002 µM) of the same compound?
The relative viability was 0.776.

What about the relative viability (EBC-1; first compound 0.000632 µM) of the same compound?
Its relative viability is 0.872.

And the relative viability (EBC-1; first compound 0.002 µM)?
The relative viability was 0.204.

And the relative viability (EBC-1; first compound 0.006325 µM)?
The relative viability was 0.271.

And the relative viability (EBC-1; first compound 0.02 µM)?
Its relative viability is 0.129.

What about the relative viability (IA-LM; first compound 0.0002 µM) of the same compound?
The relative viability was 0.351.

And the relative viability (IA-LM; first compound 0.000632 µM)?
The relative viability was 0.449.

And the relative viability (IA-LM; first compound 0.002 µM)?
Its relative viability is 0.112.

And the relative viability (IA-LM; first compound 0.006325 µM)?
Its relative viability is 0.0528.

What about the relative viability (IA-LM; first compound 0.02 µM) of the same compound?
Its relative viability is 0.042.

Which results are given for `COc1cc2nccc(Oc3ccc(NC(=O)Nc4cc(C)on4)c(Cl)c3)c2cc1OC` [Tivozanib] + C[C@]1(O)C[C@@H](c2nc(-c3ccc4ccc(-c5ccccc5)nc4c3)c3c(N)nccn32)C1 [Linsitinib] (partner 1 µM)?
relative viability (A549; first compound 0.005 µM): 0.52; relative viability (A549; first compound 0.01581 µM): 0.606; relative viability (A549; first compound 0.05 µM): 0.625; relative viability (A549; first compound 0.1581 µM): 0.635; relative viability (A549; first compound 0.5 µM): 0.656; relative viability (LK-2; first compound 0.005 µM): 0.521; relative viability (LK-2; first compound 0.01581 µM): 0.616; relative viability (LK-2; first compound 0.05 µM): 0.49; relative viability (LK-2; first compound 0.1581 µM): 0.601; relative viability (LK-2; first compound 0.5 µM): 0.393; relative viability (Calu-6; first compound 0.005 µM): 0.89; relative viability (Calu-6; first compound 0.01581 µM): 0.941; relative viability (Calu-6; first compound 0.05 µM): 0.894; relative viability (Calu-6; first compound 0.1581 µM): 0.915; relative viability (Calu-6; first compound 0.5 µM): 0.83; relative viability (NCI-H1703; first compound 0.005 µM): 0.402; relative viability (NCI-H1703; first compound 0.01581 µM): 0.254; relative viability (NCI-H1703; first compound 0.05 µM): 0.167; relative viability (NCI-H1703; first compound 0.1581 µM): 0.158; relative viability (NCI-H1703; first compound 0.5 µM): 0.283; relative viability (NCI-H1299; first compound 0.005 µM): 0.956; relative viability (NCI-H1299; first compound 0.01581 µM): 0.981; relative viability (NCI-H1299; first compound 0.05 µM): 0.981; relative viability (NCI-H1299; first compound 0.1581 µM): 0.998; relative viability (NCI-H1299; first compound 0.5 µM): 0.841; relative viability (NCI-H1734; first compound 0.005 µM): 0.847; relative viability (NCI-H1734; first compound 0.01581 µM): 0.795; relative viability (NCI-H1734; first compound 0.05 µM): 1.03; relative viability (NCI-H1734; first compound 0.1581 µM): 0.674; relative viability (NCI-H1734; first compound 0.5 µM): 0.858; relative viability (CAL-12T; first compound 0.005 µM): 0.761; relative viability (CAL-12T; first compound 0.01581 µM): 0.666; relative viability (CAL-12T; first compound 0.05 µM): 0.717; relative viability (CAL-12T; first compound 0.1581 µM): 0.713; relative viability (CAL-12T; first compound 0.5 µM): 0.816; relative viability (A-427; first compound 0.005 µM): 1.09; relative viability (A-427; first compound 0.01581 µM): 1.1; relative viability (A-427; first compound 0.05 µM): 1.23; relative viability (A-427; first compound 0.1581 µM): 0.987; relative viability (A-427; first compound 0.5 µM): 1.07; relative viability (NCI-H2009; first compound 0.005 µM): 1.15; relative viability (NCI-H2009; first compound 0.01581 µM): 1.19; relative viability (NCI-H2009; first compound 0.05 µM): 1.23; relative viability (NCI-H2009; first compound 0.1581 µM): 1.25; relative viability (NCI-H2009; first compound 0.5 µM): 1.23; relative viability (UMC-11; first compound 0.005 µM): 1.08; relative viability (UMC-11; first compound 0.01581 µM): 1.01; relative viability (UMC-11; first compound 0.05 µM): 1.06; relative viability (UMC-11; first compound 0.5 µM): 0.997; relative viability (EBC-1; first compound 0.005 µM): 0.86; relative viability (EBC-1; first compound 0.01581 µM): 0.898; relative viability (EBC-1; first compound 0.05 µM): 0.909; relative viability (EBC-1; first compound 0.1581 µM): 0.762; relative viability (EBC-1; first compound 0.5 µM): 0.887; relative viability (IA-LM; first compound 0.005 µM): 0.526; relative viability (IA-LM; first compound 0.01581 µM): 0.508; relative viability (IA-LM; first compound 0.05 µM): 0.573; relative viability (IA-LM; first compound 0.1581 µM): 0.467; relative viability (IA-LM; first compound 0.5 µM): 0.511
